In patent US12162839B1, “4,5-bis(4-bromophenyl)-2-(4-bromophenyl)-1-hexyl-1H-imidazole as an antimicrobial compound” (KING FAISAL UNIVERSITY, priority 2023, dated 2024):

Columns and labels:
Type in all cases: cell-based
Details in all cases: after 10, 20, 40 and 60 minutes at all dilutions 1:100, 1:200, 1:400, 1:800
Staphylococcus aureus = test: Antimicrobial testing by agar dilution, Staphylococcus aureus
Experimental: (§1) The antimicrobial properties of the 4,5-bis(4-bromophenyl)-2-(4-bromophenyl)-1-hexyl-1H-imidazole (5) were studied by the method of agar dilution. Test solutions of each compound were prepared in concentration of 1% using dimethylformamide as a solvent then they are diluted in physiological solution to obtain the final experimental dilutions 1:100, 1:200, 1:400, 1:800. The effect of these substances were compared with furacillin in a controllable study. The testing microbes used were gram positive bacteria Staphylococcus aureus, gram negative bacteria Escherichia coli, Pseudomonas aeruginosa and Candida albicans fungi were taken. The experiments used for this survey were meat-pentonlu agar (EPA) for cultivation of bacteria and Saburo environment for fungi. Each experiment used 1 ml of test solution on each plate 500 min. Add 2 drops of emulsified with microbes feel. All experimental samples were taken from the agar after 10, 20, 40, 60 minutes in the environment on the basis of Patrk planted. Bacteria were cultivated at a temperature of 37° C. for 1 day and the mushroom was kept in a thermostat for […] at a temperature of 28° C. in the. Then results were checked.

Escherichia coli = test: Antimicrobial testing by agar dilution, Escherichia coli
Experimental: as §1

Pseudomonas aeruginosa = test: Antimicrobial testing by agar dilution, Pseudomonas aeruginosa
Experimental: as §1

Candida albicans = test: Antimicrobial testing by agar dilution, Candida albicans
Experimental: as §1

Measured: inhibition activity (in words)

CCCCCCn1c(-c2ccc(Br)cc2)nc(-c2ccc(Br)cc2)c1-c1ccc(Br)cc1 [4,5-bis(4-bromophenyl)-2-(4-bromophenyl)-1-hexyl-1H-imidazole]
highest inhibition activity: all assays above
